# Columns and labels:
# [1] = test system: relapsed or refractory AML; assay: Independent set of 54 relapsed/refractory AML patients treated with tipifarnib; assay type: in vivo, human; conditions: for difference in overall survival between predicted responders and progressors: relapsed/refractory AML
# Text: We next performed external validation of the TSP classifier in an independent microarray dataset comprising of 54 relapsed/refractory AML patient samples. 20070048782. Importantly, a diagnostic assay that aims to predict response to a cancer therapy should have a high sensitivity (and negative predictive value) since it is important to capture as many potential responders as possible. Therefore, to define an appropriate cutoff for testing the TSP classifier we considered the need to obtain a high sensitivity of predicting responders while maintaining an acceptable level of specificity. In the training set, the level of specificity that could be achieved ranged from approximately 30% to 100% when the sensitivity was set at 100% to 80%, respectively. To ensure the classifier would predict as many responders as possible we tested a conservative cutoff that provided a specificity of approximately 60% in the training set. When this cutoff was applied to the independent testing set of relapsed/refractory AML, the RASGRP1:APTX gene classifier stratified responders with 92% NPV and 27.6% PPV (compared to 18.5% prevalence) (FIG. 3C). The associated odds ratio for being a responder was 4.38.
# In the absence of a larger independent set of newly diagnosed AML samples we also utilized 54 relapsed or refractory AML samples from our previous investigation as an independent testing set (20070048782). […] Since the prevalence of responders in that dataset was 18% this represents an improvement of overall response of approximately 50%. […] Importantly we found no association with the two-gene classifier and patient prognosis in an independent set of AML patients who were treated with chemotherapeutics. […] Further work needs to be done to clarify whether the RASGRP1:APTX expression ratio has utility for other classes of FTIs.
# [2] = test system: previously untreated, poor-risk acute myeloid leukemia (AML); assay: Phase 2 study of tipifarnib in older adults with previously untreated, poor-risk AML: clinical response and overall survival; assay type: in vivo, human
# Text: The current study utilized 67 bone marrow samples collected from an open label, multicenter, non-comparative phase 2 study investigating the efficacy and safety of farnesyltransferase inhibition with tipifarnib (R115777, ZARNESTRA®) in 158 older adults with previously untreated, poor-risk AML. The clinical results have been published elsewhere. Lancet et al. (2006).
# Lancet et al. (2006). Briefly, HI was defined as any bone marrow blast count less than 5% or a reduction in bone marrow blasts by at least half. Progressive disease (PD) was defined as either >50% increase in bone marrow or circulating blast % from baseline, or new appearance of circulating blasts (on at least 2 consecutive occasions). Stable disease (SD) was defined as any response not meeting CR, PR, HI, or PD criteria.
# This study examined gene expression profiles of leukemic bone marrow samples from patients enrolled in a Phase 2 clinical trial of the farnesyltransferase inhibitor tipifarnib in elderly patients with previously untreated poor-risk acute myelogenous leukemia. Lancet et al. (2006). Bone marrow from 67 patients was collected before treatment with tipifarnib and leukemic myeloid cells were enriched by Ficoll-density centrifugation (Table 1). Good quality total RNA from 13 responders (9 CR, 4 HI), 8 stable disease and 13 progressive disease patients was amplified, labeled, and hybridized to the Affymetrix U133A GeneChip. A total of 30 samples were evaluated by qPCR for validation of specific genes and 32 samples were evaluated for N-Ras mutational status.
# [3] = Kaplan Meier, RASGRP1 gene classifier, newly diagnosed AML (FIG. 1B)
# [4] = RASGRP1:APTX qPCR classifier, cut-point 0, 30 newly diagnosed AML samples
structure (smiles),measurement,setting,value
Cn1cncc1[C@@](N)(c1ccc(Cl)cc1)c1ccc2c(c1)c(-c1cccc(Cl)c1)cc(=O)n2C [tipifarnib],prevalence of responders,[1]; 54 relapsed/refractory AML patient samples,18%
same,difference in overall survival between predicted responders and progressors,[1]; RASGRP1:APTX TSP classifier,98 days
same,difference in overall survival between predicted responders and progressors,[1]; RASGRP1 alone,56 days
same,median overall survival of predicted responders versus patients predicted to be resistant,"[1]; two-gene classifier, relapsed or refractory AML",approximately 3 fold
same,median overall survival of the responders,[2]; [3],386 days
same,median overall survival of those with progressive disease,[2]; [3],68 days
same,median overall survival of the predicted resistant patients,[2]; [4],82 days
same,median overall survival of those classified as responders,[2]; [4],295 days
same,difference in overall survival between predicted responders and non-responders,"[2]; RASGRP1:APTX top scoring pair, training set, newly diagnosed AML",357 days

# Source: patent US7932036B1, “Methods of determining acute myeloid leukemia response to treatment with farnesyltransferase” (Veridex, LLC, priority 2008, dated 2011)
